Our source for the EC50 values is article PMC10394814, “Discovery and evaluation of active compounds from Xuanfei Baidu formula against COVID-19 via SARS-CoV-2 M^pro” (Chinese Medicine, 2023).

For one experiment, the system named is Omicron BA.1.1 variant. In words: Antiviral activity assay (CPE) in Vero E6 cells, Omicron BA.1.1. In kind it is cell-based, SARS-CoV-2.
Another experiment deals with Omicron BA.2.3 variant. In words: Antiviral activity assay (CPE) in Vero E6 cells, Omicron BA.2.3. In kind it is cell-based, SARS-CoV-2.

pEC50: −log10 of the molar value.

The pEC50 is the EC50 on a negative log10 scale, so that one unit is a factor of ten.

In the case of `Cn1cnc(Cn2c(=O)[nH]/c(=N\c3cc4cn(C)nc4cc3Cl)n(Cc3cc(F)c(F)cc3F)c2=O)n1` [S-217622, reference compound], the pEC50 in the experiment with Omicron BA.1.1 variant is 6.92; in the experiment on Omicron BA.2.3 variant it was 6.63.
